From PubChem BioAssay (NCI)
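Where inhibition never reached the appropriate level, the endpoint shown equals the highest concentration tested. Otherwise, values were interpolated linearly from a five-concentration, 48-hour dose response in 96-well plates. Definition used: TGI = concentration required for complete inhibition of growth.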

What was measured:
Test in all cases: NCI-60 cell line screen, 48 h
HCT-116 colon = system: HCT-116 colon
SR leukemia = system: SR leukemia
HOP-62 NSCLC = system: HOP-62 NSCLC
OVCAR-8 ovarian = system: OVCAR-8 ovarian
SF-539 CNS = system: SF-539 CNS
XF 498 CNS = system: XF 498 CNS
SK-MEL-2 melanoma = system: SK-MEL-2 melanoma
EKVX NSCLC = system: EKVX NSCLC
MALME-3M melanoma = system: MALME-3M melanoma
IGROV1 ovarian = system: IGROV1 ovarian
SNB-19 CNS = system: SNB-19 CNS
SK-MEL-28 melanoma = system: SK-MEL-28 melanoma
KM20L2 colon = system: KM20L2 colon
M14 melanoma = system: M14 melanoma
K-562 leukemia = system: K-562 leukemia
SW-620 colon = system: SW-620 colon
LOX IMVI melanoma = system: LOX IMVI melanoma
RXF 393 renal = system: RXF 393 renal
LXFL 529 NSCLC = system: LXFL 529 NSCLC
HL-60(TB) leukemia = system: HL-60(TB) leukemia
COLO 205 colon = system: COLO 205 colon
SN12C renal = system: SN12C renal
UACC-62 melanoma = system: UACC-62 melanoma
SK-OV-3 ovarian = system: SK-OV-3 ovarian
NCI-H460 lung = system: NCI-H460 lung
RPMI-8226 leukemia = system: RPMI-8226 leukemia
SF-268 CNS = system: SF-268 CNS
HCC-2998 colon = system: HCC-2998 colon
UACC-257 melanoma = system: UACC-257 melanoma
U251 CNS = system: U251 CNS
TK-10 renal = system: TK-10 renal
CCRF-CEM leukemia = system: CCRF-CEM leukemia
DMS 114 small cell lung = system: DMS 114 small cell lung
DLD-1 colon = system: DLD-1 colon
SNB-78 CNS = system: SNB-78 CNS
UO-31 renal = system: UO-31 renal
HOP-18 NSCLC = system: HOP-18 NSCLC
ACHN renal = system: ACHN renal
KM12 colon = system: KM12 colon
786-0 renal = system: 786-0 renal
MOLT-4 leukemia = system: MOLT-4 leukemia
HOP-92 NSCLC = system: HOP-92 NSCLC
HT29 colon = system: HT29 colon
SF-295 CNS = system: SF-295 CNS
DMS 273 small cell lung = system: DMS 273 small cell lung
OVCAR-3 ovarian = system: OVCAR-3 ovarian
SNB-75 CNS = system: SNB-75 CNS
NCI-H226 lung = system: NCI-H226 lung
NCI-H522 lung = system: NCI-H522 lung
NCI-H23 lung = system: NCI-H23 lung
A549 NSCLC = system: A549 NSCLC
PC-3 prostate = system: PC-3 prostate
MDA-MB-231 breast = system: MDA-MB-231 breast
HS 578T breast = system: HS 578T breast
DU-145 prostate = system: DU-145 prostate
MDA-N = system: MDA-N
T-47D breast = system: T-47D breast
M19-MEL melanoma = system: M19-MEL melanoma
CAKI-1 renal = system: CAKI-1 renal
SK-MEL-5 melanoma = system: SK-MEL-5 melanoma
HCT-15 colon = system: HCT-15 colon
OVCAR-5 ovarian = system: OVCAR-5 ovarian
MDA-MB-435 = system: MDA-MB-435
A498 renal = system: A498 renal
MCF7 breast = system: MCF7 breast
NCI/ADR-RES ovarian = system: NCI/ADR-RES ovarian
OVCAR-4 ovarian = system: OVCAR-4 ovarian

Cn1cc(NC(=O)[C@H]2CCC(N)=N2)cc1C(=O)NCCC(=N)N
TGI (HCT-116 colon): > 100000 nM
TGI (SR leukemia): > 100000 nM
TGI (HOP-62 NSCLC): > 100000 nM
TGI (OVCAR-8 ovarian): > 100000 nM
TGI (SF-539 CNS): > 100000 nM
TGI (XF 498 CNS): > 100000 nM
TGI (SK-MEL-2 melanoma): > 100000 nM
TGI (EKVX NSCLC): > 100000 nM
TGI (MALME-3M melanoma): > 100000 nM
TGI (IGROV1 ovarian): > 100000 nM
TGI (SNB-19 CNS): > 100000 nM
TGI (SK-MEL-28 melanoma): > 100000 nM
TGI (KM20L2 colon): > 100000 nM
TGI (M14 melanoma): > 100000 nM
TGI (K-562 leukemia): > 100000 nM
TGI (SW-620 colon): > 100000 nM
TGI (LOX IMVI melanoma): > 100000 nM
TGI (RXF 393 renal): > 100000 nM
TGI (LXFL 529 NSCLC): > 100000 nM
TGI (HL-60(TB) leukemia): > 100000 nM
TGI (COLO 205 colon): > 100000 nM
TGI (SN12C renal): > 100000 nM
TGI (UACC-62 melanoma): > 100000 nM
TGI (SK-OV-3 ovarian): > 100000 nM
TGI (NCI-H460 lung): > 100000 nM
TGI (RPMI-8226 leukemia): > 100000 nM
TGI (SF-268 CNS): > 100000 nM
TGI (HCC-2998 colon): > 100000 nM
TGI (UACC-257 melanoma): > 100000 nM
TGI (U251 CNS): > 100000 nM
TGI (TK-10 renal): > 100000 nM
TGI (CCRF-CEM leukemia): > 100000 nM
TGI (DMS 114 small cell lung): > 100000 nM
TGI (DLD-1 colon): > 100000 nM
TGI (SNB-78 CNS): > 100000 nM
TGI (UO-31 renal): > 100000 nM
TGI (HOP-18 NSCLC): > 100000 nM
TGI (ACHN renal): > 100000 nM
TGI (KM12 colon): > 100000 nM
TGI (786-0 renal): > 100000 nM
TGI (MOLT-4 leukemia): > 100000 nM
TGI (HOP-92 NSCLC): > 100000 nM
TGI (HT29 colon): > 100000 nM
TGI (SF-295 CNS): > 100000 nM
TGI (DMS 273 small cell lung): > 100000 nM
TGI (OVCAR-3 ovarian): > 100000 nM
TGI (SNB-75 CNS): > 100000 nM
TGI (NCI-H226 lung): > 100000 nM
TGI (NCI-H522 lung): > 100000 nM
TGI (NCI-H23 lung): > 100000 nM
TGI (A549 NSCLC): > 100000 nM

O=Cc1cc2c(s1)C(=O)c1sccc1C2=O
TGI (HCT-116 colon): 598 nM
TGI (PC-3 prostate): 6290 nM
TGI (SR leukemia): 5450 nM
TGI (HOP-62 NSCLC): 3270 nM
TGI (OVCAR-8 ovarian): 771 nM
TGI (MDA-MB-231 breast): 2200 nM
TGI (SF-539 CNS): 399 nM
TGI (HS 578T breast): 427 nM
TGI (XF 498 CNS): 2540 nM
TGI (SK-MEL-2 melanoma): 370 nM
TGI (DU-145 prostate): 319 nM
TGI (EKVX NSCLC): 3180 nM
TGI (MALME-3M melanoma): 664 nM
TGI (IGROV1 ovarian): 2900 nM
TGI (SNB-19 CNS): 668 nM
TGI (SK-MEL-28 melanoma): 334 nM
TGI (KM20L2 colon): 4160 nM
TGI (MDA-N): 93.2 nM
TGI (M14 melanoma): 146 nM
TGI (T-47D breast): 4380 nM
TGI (K-562 leukemia): > 17000 nM
TGI (SW-620 colon): 592 nM
TGI (LOX IMVI melanoma): 155 nM
TGI (RXF 393 renal): 663 nM
TGI (LXFL 529 NSCLC): 380 nM
TGI (M19-MEL melanoma): 70.9 nM
TGI (HL-60(TB) leukemia): 5410 nM
TGI (COLO 205 colon): 5150 nM
TGI (SN12C renal): 688 nM
TGI (UACC-62 melanoma): 532 nM
TGI (SK-OV-3 ovarian): 5480 nM
TGI (NCI-H460 lung): 2690 nM
TGI (CAKI-1 renal): 3150 nM
TGI (SF-268 CNS): 526 nM
TGI (HCC-2998 colon): 3100 nM
TGI (SK-MEL-5 melanoma): 255 nM
TGI (UACC-257 melanoma): 657 nM
TGI (U251 CNS): 748 nM
TGI (TK-10 renal): 4140 nM
TGI (DMS 114 small cell lung): 372 nM
TGI (DLD-1 colon): 1070 nM
TGI (UO-31 renal): 861 nM
TGI (HCT-15 colon): 715 nM
TGI (HOP-18 NSCLC): 322 nM
TGI (OVCAR-5 ovarian): 2000 nM
TGI (MDA-MB-435): 33.4 nM
TGI (A498 renal): 2660 nM
TGI (ACHN renal): 1770 nM
TGI (KM12 colon): 7880 nM
TGI (786-0 renal): 2420 nM
TGI (MOLT-4 leukemia): 9490 nM
TGI (HOP-92 NSCLC): 2820 nM
TGI (HT29 colon): 3690 nM
TGI (MCF7 breast): 1330 nM
TGI (SF-295 CNS): 314 nM
TGI (DMS 273 small cell lung): 308 nM
TGI (OVCAR-3 ovarian): 463 nM
TGI (NCI/ADR-RES ovarian): 409 nM
TGI (OVCAR-4 ovarian): 599 nM
TGI (SNB-75 CNS): 338 nM
TGI (NCI-H226 lung): 3530 nM
TGI (NCI-H522 lung): 2020 nM
TGI (NCI-H23 lung): 441 nM
TGI (A549 NSCLC): 1560 nM
